Test results reported in patent US9822125B2, “Benzopyran compounds as melanogenesis modifiers and uses thereof” (NEW YORK UNIVERSITY, priority 2011, dated 2017).

Tested on: melan-a cells
Test: Melanin assay in cultured murine melanocytes (melan-a)
Assay type: cell-based
Details: 72 hours of incubation
Method: The Spectrum Collection library consisting of 2000 drug compounds or natural products represents a source for the identification of compounds useful in the present invention. The library may be screened to identify novel pigmentation inhibitors in cultured murine melanocytes (melan-a). Compounds are dissolved in dimethylsulfoxide (DMSO) to a final concentration of 10 mM. Screening is performed with cultured melanocytes in 24-well plates followed by melanin assay (see below). A minimum change of 50% in melanin formation is established as significant for a pigmentation inhibitor. DMSO may be used as a negative control and the widely used depigmenting agent, hydroquinone, may be used as a positive control on every plate. Primary screening is performed at a final concentration of 1 μM and potential candidates from the primary screening are reconfirmed in duplicate at final concentrations of 1 and 5 μM.
Melan-a cells are plated at 5×10^4 cells per well in 1 ml of culture media in 24-well plates the day before adding the library compounds. All compounds are added at the indicated final concentrations. Cells are harvested after 72 hours of incubation, and the melanin assay is performed.
For further test and mechanism of action studies, the compounds may be purchased from Sigma, MicroSource or other known suppliers. The compounds are dissolved in dimethylsulfoxide (DMSO) to a final concentration of 10 mM, and are tested for their effect on melanin synthesis at the indicated final concentrations.
For the primary and secondary screening, cells were harvested and dissolved in 200 μl of 2N NaOH in 20% DMSO at 70° C. A 180-μl aliquot of the resulting solution was measured for absorbance at 490 nm.
Cells are harvested in extraction buffer (1% Triton X-100, 50 mM Tris, 2 mM EDTA, 150 mM NaCl, pH 7.5) containing a complete protease inhibitor cocktail (Roche). The lysates were centrifuged at 14,000 rpm for 10 minutes at 4° C. BCA protein assay kit (Pierce) was used to measure the protein concentrations of the supernatants, and bovine serum albumin was used as a standard. The remaining pellets were incubated with 100 μl ethanol-ether (1:1) for 10 minutes at room temperature. After removing the ethanol-ether, the pellets were dissolved in 200 μl of 2N NaOH in 20% DMSO at 70° C. A 180-μl aliquot of the resulting solution was measured for absorbance at 490 nm. The melanin contents were normalized to the total amount of protein.
The compounds, their structures, inhibition data expressed as % of control remaining, are set forth in FIG. 1 and are shown in Table 1, below.

Row | Compound | % of control melanin remaining after treatment @ 1 μM | % of control melanin remaining after treatment @ 5 μM
1 | COc1ccc(-c2coc3c4c(c(CC=C(C)C)c(O)c3c2=O)OC(C)(C)C=C4)cc1 [ID 2, Osajin- 4′methyl ester] | 99 % of control | 70 % of control
2 | CC(C)=CCc1c2c(c3occ(-c4ccc(O)c(O)c4)c(=O)c3c1O)C=CC(C)(C)O2 [ID 3, Pomiferin] | 53 % of control | –
3 | CC(C)=CCc1c2c(c3occ(-c4ccc(O)cc4)c(=O)c3c1O)C=CC(C)(C)O2 [ID 1, Osajin] | 99 % of control | 87 % of control
4 | CC(C)=CCc1c2c(c(O)c3c(=O)c(-c4ccc(O)cc4)coc13)C=CC(C)(C)O2 [ID 5, Warangalone] | 100 % of control | 78 % of control
5 | COc1ccc(-c2coc3c4c(c(CC=C(C)C)c(O)c3c2=O)OC(C)(C)C=C4)cc1OC [ID 4, Pomiferin-3′,4′-dimethyl ether] | 80 % of control | 50 % of control
